Assay results: patent US20150366839A1, “Schisantherin A for the treatment of neurodegenerative diseases” (priority 2014, published 2015)
Where two headings read alike, the source gives them in different places.

Experiments:
[1] = tested on: TH-positive neurons in the SNpc; assay type: in vivo, C57BL/6 mice; details: for neuroprotective effect on TH-positive neurons: then MPTP
Method: Male C57BL/6 mice (20±2 g body weight, 6-8 weeks of age) were purchased from the Laboratory Animal Center of Guangdong Province and were fed six animals per cage, under a 12 h light/dark cycle with ad libitum access to food and water. Mice were handled daily and allowed 3 days to acclimate before each treatment. Six groups of mice (n=7/group, total 42 mice) were assigned for the neuroprotective study in vivo. SchiA at different concentrations (30, 100 or 300 mg/kg/day), positive control drug (Selegiline, 10 mg/kg/day) or vehicle (Tween-80/ml propylene glycol/alcohol/5% PVA, 1:1:1:17, v/v/v/v) were administered by intragastric gavage (i.g.) daily for 14 days. Then mice were injected by intraperitoneal (i.p.) with 30 mg/kg MPTP hydrochloride (Sigma-Aldrich) or physiological saline daily on days 15-19 (total 5 days). In order to allow for the full conversion of MPTP to its active metabolite MPP^+, a further 3 days of resting period followed (Levites, Weinreb et al. 2001). All animal experiments were conducted according to the ethical guidelines for animal experiment of Jinan University. The experimental protocols were approved by the Ethics Committee for Animal Experiments of Jinan University (permit number 20110810).
Three days after MPTP treatment, animals were anesthetized by i.p. administration of […] chloral hydrate (10% (w/v) dissolved in distilled water) and perfused intracardially with 100 mL PBS (0.1 mmol/L, pH 7.4) followed by 150 mL 4% paraformaldehyde (PFA) in PBS. After intracardial perfusion, brains were collected and post-fixed in 4% PFA for another 24 h at 4° C., embedded in paraffin, and cut into 6 μm coronal sections encompassing the entire SNpc. As the decrease of TH-positive neurons in response to MPTP treatment is the most prominent at medial levels of the SNpc (Hayley, Crocker et al. 2004), the inventors selected the sections from the area encompassed between −3.08 and −3.20 from bregma to perform immunohistochemisty. Immunohistochemistry of brain tissues was performed as previously described (He, Yamauchi et al. 2008; Yokoyama, Takagi et al. 2008) with minor modifications. Sections were deparaffinized in xylene and rehydrated in a graded ethanol series. […] Non-specific protein binding was blocked with 10% bovine serum in PBS (0.01 M, pH 7.4). Between each treatment, the slides were washed at least three times with deionized water for 5 minutes. […] The results were analyzed by counting the numbers of TH-positive cells at ×10 magnifications on a stereomicroscope (BX51, Olympus Corp. Japan). TH-positive cells in 6 position-matched sections of each mouse were counted manually by operator who was blinded to the drug treatment. […]

Akt = assay: p-Akt level after MPP+, Western blot; assay type: cell-based, Human
Method: (§1) After treatment, SH-SY5Y cells were washed three times with PBS and then lysis with RIPA lysis buffer containing 1% PMSF and 1% Protease Inhibitor Cocktail and incubated for 30 min on ice. Cell lysates were centrifuged at 12,500 g for 20 min at 4° C. The supernatant was separated and the amount of protein was determined using the BCA protein assay kit (Thermo Scientific Pierce, USA). Protein samples (30 μg) were separated by SDS-PAGE (10% (w/v)) polyacrylamide gel and then transferred to a polyvinylidene difluoride (PVDF) membrane (Bio-Rad, Hercules, Calif.). Subsequently, the membrane was blocked with 5% (v/v) non-fat milk in PBST (PBS containing 0.1% Tween 20) for 1 h at room temperature. The blots were incubated overnight at 4° C. with primary antibodies. […] Quantitative assessment of protein bands was done with Gel Doc™ XRS equipped with Quantity One software.
The inventors also investigated the contribution of the PI3K/Akt pathway in the neuroprotective effects of SchiA. The inventors measured phosphorylation-Akt (p-Akt) levels after pre-treated with 60 μM SchiA for 12 h and then exposed to 2 mM MPP for another 36 h. […] To further validate whether the activation of PI3K/Akt signaling pathway, the inventors determined the blocking effect of PI3K/Akt inhibitor such as AKT inhibitor IV on the in vitro neuroprotective effect of SchiA. […]

CREB = assay: p-CREB, CREB and Bcl-2 time course with SchiA alone, Western blot; assay type: cell-based, Human; details: 60 μM alone
Method: as §1, with “antibodies. After three washes with PBST, the membranes were incubated with horseradish peroxidase-conjugated secondary antibodies (1:2000) in PBST with 5% non-fat milk for 1 h at room temperature. After repeated washes, proteins were visualized with an ECL advanced western blotting detection kit.” for “antibodies.”
To investigate the effect of SchiA on the activation of the upstream targets of CREB in MPP^+-treated SH-SY5Y cells, the protein levels of p-CREB/CREB and were determined. […]

COc1cc2c(c(OC)c1OC)-c1c(cc3c(c1OC)OCO3)C[C@H](C)[C@](C)(O)[C@H]2OC(=O)c1ccccc1 [SchiA, Schisantherin A]
neuroprotective effect on TH-positive neurons ([1]; 30 mg/kg): did not exert statistical significant neuroprotective effect
neuroprotective effect on TH-positive neurons ([1]; 100 mg/kg): did not exert statistical significant neuroprotective effect
TH-positive neurons in SNpc ([1]; 300 mg/kg/day i.g. 14 days, then MPTP 30 mg/kg i.p. 5 days): 82±12 cells/section
MPP+-induced down-regulation of Akt expressions (Akt; 60 μM 12 h, then 2 mM MPP+ 36 h): inhibited
p-Akt level compared to control group, compound alone (Akt; 60 μM, without MPP+): 2.5 fold
phosphorylation of CREB compared with 0 h (CREB; after 3 h): about 1.5 fold
Bcl-2 expression (CREB; from 3 h to 12 h): induced
